One series concerns Utrophin A promoter. In words: Luciferase reporter assay (murine H2K cells). The format is cell-based, mouse. To be noted: H2K/mdx/Utro A reporter cells, final concentration 10 μM, 48 hrs. The procedure:
The cell line used for the screen is an immortalized mdx mouse H2K cell line that has been stably transfected with a plasmid containing 5 kb fragment of the Utrophin A promoter including the first untranslated exon linked to a luciferase reporter gene (see FIG. 26). Under conditions of low temperature and interferon containing media, the cells remain as myoblasts. These are plated into 96 well plates and cultured in the presence of compound for three days. The level of luciferase is then determined by cell lysis and reading of the light output from the expressed luciferase gene utilising a plate luminometer. The H2K/mdx/Utro A reporter cell line was passaged twice a week until ≦30% confluent. The cells were grown at 33° C. in the presence of 10% CO2 To remove the myoblasts for platting, they were incubated with Trypsin/EDTA until the monolayer started to detach. The H2K/mdx/Utro A reporter cell line cells were plated out into 96 well plates (Falcon 353296, white opaque) at a density of approximately 5000 cells/well in 190 μl normal growth medium. The plates were then incubated at 33° C. in the presence of 10% CO2 for 24 hrs. […] The plates were then incubated for a further 48 hrs Cells were then lysed in situ following the manufacture's protocols (Promega Steady-Glo Luciferase Assay System (E2520). Then counted for 10 seconds using a plate luminometer (Victor1420).

The nature of series [1]: Slurrying experiment (single form) in methanol, thermodynamic stability. The format is physicochemical. To be noted: for polymorphic form after slurrying (XRPD): slurried in methanol for four days at 25° C. Here is the method:
The stability of the various solid forms of 5-(ethylsulfonyl)-2-(naphthalen-2-yl)benzo[d]oxazole was investigated by stirring samples of each and mixtures thereof in methanol for defined time periods.
Approximately 10 mg of two polymorphic forms was slurried in 0.25 ml of methanol for 4 days at either room temperature or 60° C. The supernatant liquor was then removed and the resulting solid was dried under vacuum for 24 hrs.
Approximately 2 mg of sample was gently compressed on the XRPD zero back ground single obliquely cut silica sample holder. The sample was then loaded into a Philips X-Pert MPD diffractometer and analysed using the following experimental conditions:
Tube anode: Cu Generator tension: 40 kV Tube current: 40 mA Wavelength alpha1: 1.5406 A Wavelength alpha2: 1.5444 A Start angle [2θ]: 5 End angle [2θ]: 35 Time per step: 2.5 seconds Scan step size: 0.06

This is an account of results in patent US20090048314A1, “TREATMENT OF DUCHENNE MUSCULAR DYSTROPHY” (priority 2007, published 2009).

Take `CCS(=O)(=O)c1ccc2oc(-c3ccc4ccccc4c3)nc2c1` [5-(ethylsulfonyl)-2-(naphthalen-2-yl)benzo[d]oxazole]: the “Biological activity in luciferase reporter assay relative to control” value in the series with Utrophin A promoter was “+++ (Between 301% and 400% relative to control)”.

With `CCS(=O)(=O)c1ccc2oc(-c3ccc4ccccc4c3)nc2c1` [polymorphic form 1, 5-(ethylsulfonyl)-2-(naphthalen-2-yl)benzo[d]oxazole], the results for the “polymorphic form after slurrying (XRPD)” value in series [1] and in series [1] (listed as Polymorphic form 1) were “retains its structure” and “no change in the polymorphic form”, respectively. Further, the “stability compared with previously known forms” value in series [1] (stirring in methanol) was “increased stability”.

For `CCS(=O)(=O)c1ccc2oc(-c3ccc4ccccc4c3)nc2c1` [polymorphic form 2, 5-(ethylsulfonyl)-2-(naphthalen-2-yl)benzo[d]oxazole], the “polymorphic form after slurrying (XRPD)” value in series [1] is “converted into polymorphic form 1”; in series [1] (listed as Polymorphic form 2), “polymorphic form 1 has converted to polymorphic form 2”.
